From US10501805B2, “Methods for determining responsiveness to MEK/ERK inhibitors” (CROWN BIOSCIENCE, INC. (TAICANG), priority 2014, dated 2019)

Key:
Assay in all cases: CellTiter-Glo cell viability, IC50 determination
Assay type in all cases: cell-based
Colo205 = conditions: Homo sapiens, COLO 205, 72 h; Colo205 cell line; 3-day CTG assay; read-out: Absolute IC50
Procedure, shortened: (§1)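 Cells were seeded at 4×10^3 cells/well in medium with 10% FBS, left overnight at 37 °C and 5% CO2, then treated in triplicate on Day 0. On Day 3, viability was read by CellTiter-Glo luminescence. Absolute IC50 is where a sigmoidal nonlinear fit crosses 50% surviving rate.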

HepG2 = conditions: Homo sapiens, 72 h; HepG2 cell line; 3-day CTG assay; read-out: Absolute IC50
Procedure, shortened: as §1

NCI-H1703 = conditions: Homo sapiens, 72 h; NCI-H1703 cell line; 3-day CTG assay; read-out: Absolute IC50
Procedure, shortened: as §1

NCI-H441 = conditions: Homo sapiens, 72 h; NCI-H441 cell line; 3-day CTG assay; read-out: Absolute IC50
Procedure, shortened: as §1

A2058 = conditions: Homo sapiens, 72 h; A2058 cell line; 3-day CTG assay; read-out: Absolute IC50
Procedure, shortened: as §1

IC50 (Colo205)	IC50 (HepG2)	IC50 (NCI-H1703)	IC50 (NCI-H441)	Structure (SMILES)	IC50 (A2058)
40 nM	130 nM			O=C(Nc1ccc2[nH]nc(-c3ccncc3)c2c1)[C@@H]1CCN(CC(=O)N2CCN(c3ccc(-c4ncccn4)cc3)CC2)C1 [SCH772984, (R)-1-(2-oxo-2-(4-(4-(pyrimidin-2-yl)phenyl)piperazin-1-yl)ethyl)-N-(3-(pyridin-4-yl)-1H-indazol-5-yl)pyrrolidine-3-carboxamide]	
		15000 nM	325000 nM	CC(=O)Nc1cccc(-n2c(=O)n(C3CC3)c(=O)c3c(Nc4ccc(I)cc4F)n(C)c(=O)c(C)c32)c1 [Trametinib, N-(3-{3-Cyclopropyl-5-[(2-fluoro-4-iodophenyl)amino]-6,8-dimethyl-2,4,7-trioxo-3,4,6,7-tetrahydropyrido[4,3-d]pyrimidin-1(2H)-yl}phenyl)acetamide]	120 nM
